{
  "source": "patent US9476099B2",
  "about": "(TRUSTEES OF DARTMOUTH COLLEGE, priority 2012, dated 2016)",
  "key": {"833K cells": {"system": "833K cells", "assay": "Cell-Titre Glo viable cell growth and survival, 3 day decitabine", "assay_type": "cell-based", "conditions": "Homo sapiens, 72 h, 3 day treatment, FIG. 1, read-out: IC50, growth inhibition", "method": "(§1) Indicated doses of decitabine were added fresh each day for three days to exponentially growing cultures. Viable cell growth and survival were measured. Data are normalized to no drug treatment. EC cells are NT2/D1, NT2D1/R1, 833K, 833KCP, and Tera-1. Data are the average of 3 experiments in biological duplicate except for MCF-7 cells, which were assayed twice. Error bars are standard deviation (S.D.).\n(§2) Cell growth and viability of five EC cell lines (NT2/D1, NT2D1/R1, 833K, 833KCP, and Tera-1) were determined, including two cell lines that are cisplatin-resistant (NT2/D1-R1 and 833KCP). Three control somatic tumor cell lines were also tested (HCT116, MCF7 and U2OS). […] Viable cell growth and survival were measured using Cell-Titre Glo (Promega) assays. […] These higher values are similar to the values shown in FIG. 1 for somatic tumor cell lines (MCF7, U2OS and HCT116).\n(§3) NT2/D1, NT2D1-R1, 833K, 833K-CP, Tera-1, U20S, and HCT116 cells were cultured in DMEM with 10% FBS supplemented with glutamine and antibiotics except for MCF7 cells that were cultured in F12-DMEM. The derivation of the NT2/D1-resistant NT2/D1-R1 cell line has been previously described (Curtin et al. 2001. Oncogene 20:2559-2569; Kerley-Hamilton et al. 2007. Biochim. Biophys. Acta 1769:209-219). Cells were treated with the indicated dosages of 5-azadeoxycytidine (5-aza-CdR) for 3 days. This drug was replenished each day. […]"}, "833K-CP cells": {"system": "833K-CP cells", "assay": "Cell-Titre Glo viable cell growth and survival, 3 day decitabine", "assay_type": "cell-based", "conditions": "2.5 nM, FIG. 1", "method": "as §1, §2, §3"}, "NT2 cells": {"system": "NT2 cells", "assay": "Gene set enrichment analysis (GSEA) of microarray data (Table 6)", "assay_type": "cell-based, human", "method": "Gene set enrichment analysis (GSEA) was performed.\nExpression analysis was performed on the […] HumanHT-12 v3 or […] HumanHT-12 v4 bead chip arrays ([…]) and scanned on the BeadArray Reader ([…]) according to manufacturer's instructions."}, "NT2/D1 cells [1]": {"system": "NT2/D1 cells", "assay": "Cell-Titre Glo viable cell growth and survival, 3 day decitabine", "assay_type": "cell-based", "conditions": "72 h, read-out: IC50, growth inhibition", "method": "as §1, §2\n(§4) NT2/D1, NT2D1-R1, 833K, 833K-CP, Tera-1, U20S, and HCT116 cells were cultured in DMEM with 10% FBS supplemented with glutamine and antibiotics except for MCF7 cells that were cultured in F12-DMEM. The derivation of the NT2/D1-resistant NT2/D1-R1 cell line has been previously described (Curtin et al. 2001. Oncogene 20:2559-2569; Kerley-Hamilton et al. 2007. Biochim. Biophys. Acta 1769:209-219). Cells were treated with the indicated dosages of 5-azadeoxycytidine (5-aza-CdR) for 3 days. This drug was replenished each day. Cisplatin (Bristol Laboratories) treatments were performed at the concentrations and time points indicated. To assess cell proliferation and survival, CELL-TITRE GLO (Promega) assays were performed.\n(§5) Cells were cultured in DMEM media (Gibco) with 10% FBS. Decitabine was added fresh each day. Lentiviral control cells and the stable shRNA DNMT3B knockdown cell line (NT2/D1-R1-sh84) were described previously (Beyrouthy et al. 2009. Cancer Res. 69:9360-9366). DNMT3B knockdown was greater than 90% as confirmed by western blot analysis. Cell proliferation and survival were assessed with the CELL-TITRE GLO assay (Promega). Cell cycle analysis with propidium iodine has been previously described (Kerley-Hamilton et al. 2005. Oncogene 24:6090-6100)."}, "NT2/D1-R1 cells [2]": {"system": "NT2/D1-R1 cells", "assay": "Cell-Titre Glo viable cell growth and survival, 3 day decitabine", "assay_type": "cell-based", "conditions": "10 nM, FIG. 1", "method": "as §1, §2, §4, §5"}, "NT2/D1-R1 cells [3]": {"system": "NT2/D1-R1 cells", "assay": "Apoptosis by PARP cleavage and sub G1 DNA content", "assay_type": "cell-based", "conditions": "decitabine 10 nM, three days; NT2/D1-R1", "method": "Importantly, decitabine-mediated H2AX activation also occurs in the presence of the caspase 3 inhibitor (Z-VAD-FMK) at concentrations that inhibit PARP cleavage.\nas §5\n(§6) SYBR green-based real-time PCR (Applied Biosystems) was employed using the ddCT method normalized to GAPDH. For western blot analysis cells were lysed in radioimmune precipitation buffer and separated by SDS-PAGE. Antibodies to actin (sc01615, Santa Cruz), 139-H2AX (Cell Signaling), PARP (c-2-10, Biomol International) and p53 (D0-1, Santa Cruz) were used."}, "NT2/D1 cells [4]": {"system": "NT2/D1 cells", "assay": "Apoptosis by PARP cleavage and sub G1 DNA content", "assay_type": "cell-based", "conditions": "decitabine 10 nM, three days; NT2/D1", "method": "as §5, §6"}, "[5]": {"system": "NT2/D1 and NT2/D1-R1 cells expressing DNMT3B-targeting shRNAs", "assay": "Decitabine dose-response in DNMT3B shRNA knockdown EC cells", "assay_type": "cell-based, human", "method": "Data are the average of biological triplicates and are representative of at least two experiments. Error bars are S.D.\nViable cell growth and survival were measured. Data was normalized to no drug treatment. Error bars (within symbols) are standard deviation. * p=<0.05 compared to untreated controls.\nFive distinct lentiviral shRNAs for DNMT3B (sh84, sh85, sh86, sh87, and sh88) were used to knock down DNMT3B expression. Six potential alternatively spliced isoforms of DNMT3B exist; the most biologically relevant isoforms are variants 1, 2, 3 and 6 (Jones, P. A. and S. B. Baylin. 2007. Cell 128:683-692). […] Western blot analysis of NT2/D1 and NT2/D1-R1 cells was also performed with cells treated with DNMT3B shRNA ([…]) and employing DNMT3B antibody, H-230. The results confirmed the reduced expression of DNMT3B when the shRNA were employed. None of the DNMT3B-specific shRNAs affected levels of DNMT1 or DNMT3A (FIG. 2). […] However, knockdown of DNMT3B by itself had no apparent effect on the growth of NT2/D1 or NT2/D1-R1 cells. […] It had been previously reported that cisplatin causes a global p53-dominant transcriptional response in EC cells (Kerley-Hamilton et al. 2005. Oncogene 24:6090-6100). […]\nCells were cultured in DMEM media (Gibco) with 10% FBS. […] Cell proliferation and survival were assessed with the CELL-TITRE GLO assay (Promega). […]"}, "[6]": {"conditions": "Gene Sets Depleted in NT2 Cells with 3-Day Decitabine Treatment (10 nM)"}, "[7]": {"conditions": "Gene Sets Enriched in NT2 Cells with 3-Day Decitabine Treatment (10 nM)"}},
  "note": "Entries after “also recorded” stand apart in the source; their conditions may differ.",
  "data": [
    {"smiles": "Nc1ncn([C@H]2C[C@H](O)[C@@H](CO)O2)c(=O)n1", "note": "[decitabine, 5-aza-deoxycytidine]", "values": [
      {"measurement": "IC50", "setting": "833K cells", "value": "5 to 25", "unit": "nM"},
      {"measurement": "inhibition at 0.0025 µM", "setting": "833K-CP cells", "value": 10, "unit": "%"},
      {"measurement": "NES, BENPORATH_ES_1", "setting": "NT2 cells; [6]", "value": 2.6981},
      {"measurement": "NES, BENPORATH_ES_2", "setting": "NT2 cells; [6]", "value": 2.3953},
      {"measurement": "NES, BHATTACHARYA_EMBRYONIC_STEM_CELL", "setting": "NT2 cells; [6]", "value": 2.2132},
      {"measurement": "NES, CONRAD_STEM_CELL", "setting": "NT2 cells; [6]", "value": 2.1627},
      {"measurement": "NES, MISSIAGLIA_REGULATED_BY_METHYLATION_DN", "setting": "NT2 cells; [6]", "value": 2.1720},
      {"measurement": "NES, MUELLER_PLURINET", "setting": "NT2 cells; [6]", "value": 2.2694},
      {"measurement": "NES, PAL_PRMT5_TARGETS_UP", "setting": "NT2 cells; [6]", "value": 2.2049},
      {"measurement": "NES, SCHLOSSER_MYC_TARGETS_AND_SERUM_RESPONSE_DN", "setting": "NT2 cells; [6]", "value": 2.2821},
      {"measurement": "NES, SCHLOSSER_MYC_TARGETS_REPRESSED_BY_SERUM", "setting": "NT2 cells; [6]", "value": 2.4043},
      {"measurement": "NES, SCHUHMACHER_MYC_TARGETS_UP", "setting": "NT2 cells; [6]", "value": 2.5662},
      {"measurement": "NES, VSE2F_02", "setting": "NT2 cells; [6]", "value": 2.2708},
      {"measurement": "NES, WONG_EMBRYONIC_STEM_CELL_CORE", "setting": "NT2 cells; [6]", "value": 2.4279},
      {"measurement": "NES, CONCANNON_APOPTOSIS_BY_EPOXOMICIN_UP", "setting": "NT2 cells; [7]", "value": "−2.2139"},
      {"measurement": "NES, HAMAI_APOPTOSIS_VIA_TRAIL_DN", "setting": "NT2 cells; [7]", "value": "−1.9615"},
      {"measurement": "NES, HELLER_SILENCED_BY_METHYLATION_UP", "setting": "NT2 cells; [7]", "value": "−1.9604"},
      {"measurement": "NES, KERLEY_RESPONSE_TO_CISPLATIN_UP", "setting": "NT2 cells; [7]", "value": "−2.4408"},
      {"measurement": "NES, KIM_RESPONSE_TO_TSA_AND_DECITABINE_UP", "setting": "NT2 cells; [7]", "value": "−1.9665"},
      {"measurement": "NES, KYNG_DNA_DAMAGE_BY_UV", "setting": "NT2 cells; [7]", "value": "−2.0319"},
      {"measurement": "NES, MISSIAGLIA_REGULATED_BY_METHYLATION_UP", "setting": "NT2 cells; [7]", "value": "−2.1687"},
      {"measurement": "NES, MUELLER_METHYLATED_IN_GLIOBLASTOMA", "setting": "NT2 cells; [7]", "value": "−2.0961"},
      {"measurement": "NES, RUGO_UV_RESPONSE", "setting": "NT2 cells; [7]", "value": "−1.9676"},
      {"measurement": "IC50", "setting": "NT2/D1 cells [1]", "value": "5 to 25", "unit": "nM"},
      {"measurement": "inhibition of proliferation versus control", "setting": "NT2/D1-R1 cells [2]", "value": 10, "unit": "%"},
      {"measurement": "apoptotic responses (PARP cleavage, sub G1 DNA content with G2 arrest)", "setting": "NT2/D1-R1 cells [3]", "value": "apoptotic responses; also recorded: induced apoptosis"},
      {"measurement": "apoptotic responses (PARP cleavage, sub G1 DNA content with G2 arrest)", "setting": "NT2/D1 cells [4]", "value": "apoptotic responses"},
      {"measurement": "effect of DNMT3B knockdown on response to low-dose 3 day decitabine treatment compared to sh-control cells", "setting": "[5]; NT2/D1-R1 shDNMT3B, FIG. 11", "value": "extensive resistance"},
      {"measurement": "decitabine sensitivity of cells expressing DNMT3B-targeting shRNAs compared to control cells", "setting": "[5]; NT2/D1 sh84, NT2/D1-R1 sh84, sh85, sh86, 3 day treatment, FIG. 3", "value": "dramatic reduction of decitabine sensitivity"}
    ]}
  ]
}
